# Results published in article PMC10709440, “High-throughput ligand profile characterization in novel cell lines expressing seven heterologous insect olfactory receptors for the detection of volatile plant biomarkers” (Scientific Reports, 2023).
# Like-named read-outs stand apart in the source and are kept apart here.
# How the values were obtained:
# Drosophila OR49b = target: T1, Drosophila OR49b (Drosophila melanogaster, UniProt Q9V6H2); assay: cell-based; details: for OR49b response (VUAA1-normalized) at 1 μM / OR49b response (VUAA1-normalized) at 10 μM / OR49b response (VUAA1-normalized) at 100 μM / Average response: OR49b cell line; for Average response: mean of biological replicates; for activation at 1 µM / activation at 10 µM / activation at 100 µM: HEK293
# T1 construct: expressed in transfected cells
# T1 sequence (Q9V6H2 1-375): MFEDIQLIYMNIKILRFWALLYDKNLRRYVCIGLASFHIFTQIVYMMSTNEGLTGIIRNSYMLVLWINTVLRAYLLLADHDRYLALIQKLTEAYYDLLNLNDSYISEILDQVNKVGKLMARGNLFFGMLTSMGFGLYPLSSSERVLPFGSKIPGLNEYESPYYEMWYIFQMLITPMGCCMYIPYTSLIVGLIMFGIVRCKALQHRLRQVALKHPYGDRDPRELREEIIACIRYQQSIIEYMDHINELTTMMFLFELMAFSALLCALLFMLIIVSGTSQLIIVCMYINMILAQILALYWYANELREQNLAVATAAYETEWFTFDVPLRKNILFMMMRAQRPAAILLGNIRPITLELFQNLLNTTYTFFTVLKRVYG
# T1 sequence (Q9VNB5 1-486 partner): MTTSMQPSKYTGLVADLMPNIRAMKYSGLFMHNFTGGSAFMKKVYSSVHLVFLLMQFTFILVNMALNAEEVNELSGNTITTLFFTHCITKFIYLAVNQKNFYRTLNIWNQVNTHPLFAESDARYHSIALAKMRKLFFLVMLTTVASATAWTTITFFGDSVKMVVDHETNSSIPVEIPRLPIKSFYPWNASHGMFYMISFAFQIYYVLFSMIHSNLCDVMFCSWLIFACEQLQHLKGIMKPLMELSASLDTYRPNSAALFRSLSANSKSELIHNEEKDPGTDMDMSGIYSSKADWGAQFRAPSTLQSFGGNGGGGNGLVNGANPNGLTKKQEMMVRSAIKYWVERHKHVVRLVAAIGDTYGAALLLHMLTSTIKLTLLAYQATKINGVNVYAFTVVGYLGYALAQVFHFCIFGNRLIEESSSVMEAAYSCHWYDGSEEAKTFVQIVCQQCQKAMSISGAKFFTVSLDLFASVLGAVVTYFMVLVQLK
# Description: (§1) These VUAA1 normalized ∆F values were used to compare the different receptors and ligands.
# (§2) The concentration-dependent effect of the reference ligands on their cognate cell lines was examined in more detail. Twelve different ligand concentrations were measured on each cell line in an overall 0.01 μM to 100 μM concentration range with 5 repetitions with three technical replicates each time.
# (§3) Twelve thousand to 18,000 cells were plated into each well of a black wall, transparent bottom 384-well microplate (Greiner) 48 h or 72 h before the measurements and were simultaneously treated with 1 μg/mL doxycycline. […] The plate has 24 columns, thus we could record responses in up to eight different cell lines in each plate. On the day of the experiment, the growth medium was replaced with 20 µL assay buffer/well (140 mM NaCl, 5 mM KCl, 2 mM CaCl2, 1 mM MgCl2, 5 mM HEPES-Na, 20 mM glucose, pH 7.3, 340 mOsm). […] Baseline fluorescence (F0) was recorded for 5 s, after which 7 µL VOC buffer (140 mM NaCl, 5 mM KCl, 2 mM CaCl2, 1 mM MgCl2, 5 mM HEPES-Na, 31 mM glucose, 0.1% DMSO, pH 7.3, 340 mOsm) was injected into each well in one row and the fluorescence response was recorded for an additional 30 s, at a rate of one read/sec. VOC solutions (VOC buffer with 4× concentration of the final measured VOC concentration, 9 µL/well was injected) were measured on the same wells in a second round with the same protocol. Each individual concentration of a specific VOC sample was recorded in three wells for the same cell line on the same microplate. The raw data were exported in xls file format, F0 and FMAX values, and the fluorescence intensity changes (∆F) were calculated in Excel (Microsoft) (Supplementary file Data summary.xlsx) using the following equation: ΔF=FMAX-F0/F0 (see also Fig. 1C). On each plate, we recorded the response of each cell line to 50 µM VUAA1. The average of these ∆F values of each cell line were used to calculate the VUAA1-normalized values for the rest of the plate, by dividing VOC response ∆F values by the average VUAA1 response ∆F value of the corresponding OR cell line. Each VOC-OR combination was measured three times as technical replicates. […] The average of these replicates were used as one ∆F and VUAA1-normalized ∆F in the following analysis.
# (§4) In the next rows we tested the reference VOCs (or other VOCs known to activate the corresponding cell lines), in order to test if all cell lines are responsive. The remaining rows were used to test VOCs with unknown effect.
# (§5) The recorded FMAX, F0, ∆F, VUAA1-normalized ∆F values, as well as the OR name, the name of the tested sample, and the final concentration for each well were copied into supplementary file Data summary.xlsx, that was used to summarize all the plates recorded. Here, the averages of the measurements were calculated for each receptor-VOC-concentration combination.
# Drosophila OR71a = target: T2, Drosophila OR71a (Drosophila melanogaster, UniProt Q9VUK5); assay: Calcium ion fluorescence (GCaMP6) assay, OR71a stable HEK293 cell line; assay type: cell-based; details: for OR71a response (VUAA1-normalized) at 1 μM / OR71a response (VUAA1-normalized) at 10 μM / OR71a response (VUAA1-normalized) at 100 μM / Average response: OR71a cell line; for OR71a response (VUAA1-normalized) at 1 μM: VOC concentration 1 μM; for OR71a response (VUAA1-normalized) at 10 μM: VOC concentration 10 μM; for OR71a response (VUAA1-normalized) at 100 μM: VOC concentration 100 μM; for Average response: VUAA1-normalized response, mean of biological replicates; for activation at 1 µM / activation at 10 µM / activation at 100 µM: HEK293, read-out: OR71a response (VUAA1-normalized response)
# T2 construct: expressed in transfected cells
# T2 sequence (Q9VUK5 1-378): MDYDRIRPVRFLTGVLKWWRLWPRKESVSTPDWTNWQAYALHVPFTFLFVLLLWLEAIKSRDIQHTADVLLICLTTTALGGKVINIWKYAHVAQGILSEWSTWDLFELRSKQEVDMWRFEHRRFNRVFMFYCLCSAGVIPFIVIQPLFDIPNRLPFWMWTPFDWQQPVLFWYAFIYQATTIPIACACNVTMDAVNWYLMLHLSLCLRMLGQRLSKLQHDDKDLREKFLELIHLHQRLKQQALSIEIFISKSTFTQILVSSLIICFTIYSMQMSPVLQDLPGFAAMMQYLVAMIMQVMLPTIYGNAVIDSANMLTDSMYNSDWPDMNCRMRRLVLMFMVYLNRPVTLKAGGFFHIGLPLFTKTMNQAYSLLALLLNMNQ
# T2 sequence (Q9VNB5 1-486 partner): T1 sequence (Q9VNB5 1-486 partner)
# Description: as §1, §2, §3, §4, §5
# [1] = ligand concentration 1 (unit not given), threshold 0.05, below shown as 0
# [2] = ligand concentration 10 (unit not given), threshold 0.05, below shown as 0
# [3] = ligand concentration 100 (unit not given), threshold 0.05, below shown as 0
# [4] = VOC concentration 1 μM, read-out: OR49b response (VUAA1-normalized response)
# [5] = VOC concentration 10 μM, read-out: OR49b response (VUAA1-normalized response)
# [6] = VOC concentration 100 μM, read-out: OR49b response (VUAA1-normalized response)
# [7] = concentration 1, normalized fluorescence change, values below 0.05 threshold given as 0
# [8] = concentration 10, normalized fluorescence change, values below 0.05 threshold given as 0
# [9] = concentration 100, normalized fluorescence change, values below 0.05 threshold given as 0
# [10] = ligand concentration 1 (unit not given), 0.05 threshold, values below shown as 0
# [11] = ligand concentration 10 (unit not given), 0.05 threshold, values below shown as 0
# [12] = ligand concentration 100 (unit not given), 0.05 threshold, values below shown as 0
# [13] = 1 μM VOC, 50 μM VUAA1 = 1, read-out: OR49b Average response (VUAA1-normalized)
# [14] = 10 μM VOC, 50 μM VUAA1 = 1, read-out: OR49b Average response (VUAA1-normalized)
# [15] = 100 μM VOC, 50 μM VUAA1 = 1, read-out: OR49b Average response (VUAA1-normalized)
SMILES,OR49b response (VUAA1-normalized) at 1 μM (Drosophila OR49b; VOC concentration 1 μM),OR49b response (VUAA1-normalized) at 10 μM (Drosophila OR49b; VOC concentration 10 μM),OR49b response (VUAA1-normalized) at 100 μM (Drosophila OR49b; VOC concentration 100 μM),Average response (Drosophila OR49b; odorant cc. 1 µM),Average response (Drosophila OR49b; odorant cc. 10 µM),Average response (Drosophila OR49b; odorant cc. 100 µM),DF norm AVERAGE OR49b (Drosophila OR49b; [1]),DF norm AVERAGE OR49b (Drosophila OR49b; [2]),DF norm AVERAGE OR49b (Drosophila OR49b; [3]),OR71a response (VUAA1-normalized) at 1 μM (Drosophila OR71a),OR71a response (VUAA1-normalized) at 10 μM (Drosophila OR71a),Average response (Drosophila OR71a; cc. 1 µM),Average response (Drosophila OR71a; cc. 10 µM),Average response (Drosophila OR71a; cc. 100 µM),activation at 1 µM (Drosophila OR49b; [4]),activation at 10 µM (Drosophila OR49b; [5]),activation at 100 µM (Drosophila OR49b; [6]),activation at 1 µM (Drosophila OR71a),activation at 10 µM (Drosophila OR71a),activation at 100 µM (Drosophila OR71a),also measured
C=CC(C)(O)CCC=C(C)C (stereo not shown) [linalool],0.00,0.00,0.00,0.00,0.00,0.0212,0,0,0,0.00,0.00,0.00,0.0443,0.0124,–,–,–,–,–,–,OR71a response (VUAA1-normalized) at 100 μM (Drosophila OR71a): 0.00; DF norm AVERAGE OR71a (Drosophila OR71a; [1]): 0; DF norm AVERAGE OR71a (Drosophila OR71a; [2]): 0; DF norm AVERAGE OR71a (Drosophila OR71a; [3]): 0
CCCCC(C)O (stereo not shown) [2-hexanol],–,–,–,0.00,0.00,0.0161,–,–,–,–,–,0.00,0.00,0.0351,0%,0%,0%,0%,0%,0%,DF norm AVERAGE OR49b (Drosophila OR49b): 0; DF norm AVERAGE OR71a (Drosophila OR71a; [7]): 0; DF norm AVERAGE OR71a (Drosophila OR71a; [8]): 0; DF norm AVERAGE OR71a (Drosophila OR71a; [9]): 0
CC1=CCC23CC1C(C)(C)C2CCC3C (stereo not drawn) [α-funebrene],0.00,0.00,0.00,0.00,0.00,0.00,–,–,–,0.00,0.00,0.00,0.00,0.00,–,–,–,–,–,–,DF norm AVERAGE OR49b (Drosophila OR49b; [10]): 0; DF norm AVERAGE OR49b (Drosophila OR49b; [11]): 0; DF norm AVERAGE OR49b (Drosophila OR49b; [12]): 0; OR71a response (VUAA1-normalized) at 100 μM (Drosophila OR71a): 0.00; DF norm AVERAGE OR71a (Drosophila OR71a; [10]): 0; DF norm AVERAGE OR71a (Drosophila OR71a; [11]): 0; DF norm AVERAGE OR71a (Drosophila OR71a; [12]): 0
O=Cc1ccccc1 [benzaldehyde],–,–,–,0.00,0.0283,0.23,0,0,0.2265,–,–,0.03,0.00,0.00,0%,0%,23%,0%,0%,0%,activation at 1 µM (Drosophila OR49b; [13]): 0%; activation at 10 µM (Drosophila OR49b; [14]): 3%; activation at 100 µM (Drosophila OR49b; [15]): 23%; DF norm AVERAGE OR71a (Drosophila OR71a; [1]): 0; DF norm AVERAGE OR71a (Drosophila OR71a; [2]): 0; DF norm AVERAGE OR71a (Drosophila OR71a; [3]): 0
Cc1ccc(O)cc1 [4-methylphenol],–,–,–,0.0329,0.11,0.44,–,–,–,–,–,0.00,0.00,0.00,0%,11%,44%,0%,0%,0%,activation at 1 µM (Drosophila OR49b; [13]): 3%; activation at 10 µM (Drosophila OR49b; [14]): 11%; activation at 100 µM (Drosophila OR49b; [15]): 44%; DF norm AVERAGE OR71a (Drosophila OR71a; [7]): 0; DF norm AVERAGE OR71a (Drosophila OR71a; [8]): 0; DF norm AVERAGE OR71a (Drosophila OR71a; [9]): 0
